{"source": "patent US20030064989A1", "about": "“Inhibitors of cell proliferation, angiogenesis, fertility, and muscle contraction” (priority 2001, published 2003)", "key": {"[1]": {"tested_on": "hamster oviduct explants (infundibulum)", "test": "Ciliary beat frequency assay", "format": "cell-based, golden hamsters (Mesocricetus auratus)", "description": "Ciliary beat frequency was measured using hamster oviduct explants in an in vitro assay (Knoll et al., 1998, supra; Talbot et al., 1998, supra). Perfusion chambers containing infundibula were placed on a Wild stereoscopic microscope (model BD-HF) and viewed at 50×. A video image was sent from the microscope to a Dell computer using a Hitachi camera and recorded using a VCR onto a Super VHS videotape. To measure cilia beat frequency the videotape was played back frame-by-frame. The VCR recorded 15 frames per second. Each frame represented a fraction of a cycle; the completion of a cycle was equivalent to one beat. Number of frames per cycle (or frames per beat) were measured and then converted into beats per second. Ten measurements were made for each infundibulum for each treatment group. Recordings were made for 40-60 seconds per region, which ensured an adequate amount of data for analysis.\nFor the ciliary beat frequency, oocyte pickup rate, and infundibular muscle contraction graphs, purified 3-ethylpyridine was purchased and dissolved in EBSS. A hamster infundibulum was exposed to a dose range of 9.33 e-7 to 9.33 e-4 mM (four dose groups total) for five minutes and oocyte pickup rate, ciliary beat frequency, and infundibular contraction were measured. […]"}, "hamster infundibula": {"tested_on": "hamster infundibula", "test": "Infundibular muscle contraction assay", "format": "cell-based, golden hamsters (Mesocricetus auratus)", "description": "The infundibular muscle contraction assay was developed after observing consistent infundibular contractions that slowed or ceased after treatment with mainstream smoke solutions. Perfusion chambers containing infundibula were placed on a Wild stereoscopic microscope (model BD-HF) and viewed at 50×. A video image was sent from the microscope to a Dell computer using a Hitachi camera and the infundibular contractions could be observed and measured on the computer monitor. As the infundibulum contracted, the image shown on the monitor moved a measurable distance. This distance was measured during each contraction by placing a ruler against the computer monitor. These values (in centimeters) were then converted to actual distance by capturing an image of a ruler under the microscope and converting the measured values to micrometers. Frequency was also measured by observing the contracting infundibula on the computer monitor. The number of times the infundibulum contracted per minute was recorded. Each parameter was measured four to six times per infundibulum per treatment group.\nFor the ciliary beat frequency, oocyte pickup rate, and infundibular muscle contraction graphs, purified 3-ethylpyridine was purchased and dissolved in EBSS. […]"}, "[2]": {"tested_on": "chick chorioallantoic membrane (CAM)", "test": "Chick chorioallantoic membrane (CAM) assay, CAM area", "description": "The chick chorioallantoic membrane (CAM) assay is perhaps the most widely used assay for screening anti-angiogenic or growth inhibitory compounds (see, e.g. Ribatti et al., Int. J. Dev. Biol. 40:1189-1197 (1996)). Cell proliferation and angiogenesis were evaluated by measuring CAM area and BrdU labeling using the CAM assay as modified by Melkonian et al., J. Exp. Zool. (2001), in review. Fertilized chicken eggs were purchased from Hy-Line International (Lakeview, CA), then incubated at 37° C. at 85-90% relative humidity throughout the experiment. Experiments were done to evaluate cell proliferation, angiogenesis, and vascularization in CAMs between days 5 and 6 after fertilization. Albumin (2.5-3.0 cc) was removed on the fourth day after fertilization to drop the embryo away from the shell. Windows were then made in shells, and sealed with transparent tape to allow subsequent access to the CAM for experimental treatment. 200 μl of either EBSS-H or different concentrations of pure chemicals were added to the surface of each CAM at 10 AM on the fifth day after fertilization. A sham control group in which the window was opened and resealed was also included in each experiment. In all cases, the following five concentrations of test reagents were used, 5×10^−3 M, 5×10^−5 M, 5×10^−7M, 5×10^−9 M and 5×10^−11M. For 2-ethylpyridine and 3-ethylpyridine additional concentrations of 5×10^−12M, 5×10^−13M, 5×10^−14 M and 5×10^−15 M were used. For nicotine and nornicotine, concentrations of 5×10^−4 M, 5×10^−6 M, 5×10^−8 M and 5×10^−10 M were also used. Development was terminated at 10 AM on the sixth day after fertilization by fixing the embryo and the CAM with 3% glutaraldehyde in 0.1M cacodylate buffer (pH 7.4) for 2 hours at room temperature. A small volume of fixative was also injected under the CAM. The CAMs were later dissected from eggs, post-fixed in the same fixative for 24 hours at room temperature, then thoroughly rinsed in PBS.\nAt least 6 CAMs were used in each control and experimental group. Parameters which measure aspects of cell proliferation, angiogenesis, and vacularization were quantified for each CAM. These parameters include: (1) for cell proliferation—CAM area, BrdU labeling of nuclei; (2) for angiogenesis—blood vessel pattern, blood vessel area, blood vessel diameter, and blood vessel branching; (3) for vascularization—density of angiogenic clusters. The area of each CAM was measured by placing the CAMs in PBS in a Petri dish under a Wild-M5A dissecting microscope (Max ERB instrument Co., Burbank, CA), then measuring the longest and shortest length of each CAM with a ruler to the precision of 0.5 mm. The data were recorded into Excel spreadsheet. CAM area was calculated using the formula:\nwhere A=longest length, B=longest width, π=3.14.\nMeans and standard deviations were then calculated for each control and treatment group. The treated group means were used to compare with control means to determine the effect of each chemical on CAM growth.\nOn the fifth day after fertilization, either EBSS-H or different concentrations of test chemicals were added to each CAM. A sham group in which windows were opened and resealed without adding any solution was also included to determine if the vehicle EBSS-H had any effect on CAM area. Development was terminated 24 hours later, and CAMs were measured as described in Materials and Methods."}, "[3]": {"tested_on": "hamster oviduct explants (infundibulum)", "test": "Oocyte pickup rate (OPR) assay", "format": "cell-based, golden hamsters (Mesocricetus auratus)", "description": "Hamsters were injected with 25 I.U. of human chorionic gonadotropin (hCG) on the evening of Day 4 of their estrous cycle. On the day of the experiment, approximately 12 hours after the injection of hCG, hamsters were sacrificed using CO2, and oviducts and ovaries were removed. During dissection the oviduct and ovary were separated. Ovaries were isolated in EBSS-HA and expanded follicles were poked with a dissecting needle to release the oocyte cumulus complexes (OCCs). Oocyte cumulus complexes were transferred to a fresh Petri dish and placed in EBSS-HA. The infundibulum was cut from the oviduct leaving part of the ampulla attached to function as a handle. […]\nOocyte cumulus complex pick-up rate was measured using hamster oviduct explants in an in vitro assay (Huang et al., 1997, supra; Knoll et al., 1998, supra; Talbot et al., 1998, supra). […] An oocyte cumulus complex was placed at the base of the infundibulum and the length of time needed for the complex to traverse a defined path to the ostium was recorded. […] Then the test smoke solution or chemical was added to the perfusion chamber and allowed to incubate for five minutes after which pickup-rate was measured again. […] Oocyte pickup-rate was measured again and this rate was recorded as the “recovery” measurement. […]"}, "[4]": {"conditions": "five minutes, single infundibulum"}, "[5]": {"conditions": "CAM area, day 5-6 CAMs, 24 hours"}}, "note": "Where “and” joins values, the source holds several entries; their conditions need not be identical. Equal values may be shown once.", "data": [{"smiles": "CCc1cccnc1", "note": "[3-ethylpyridine]", "values": [{"measurement": "concentration at which ciliary beat frequency was significantly inhibited", "setting": "[1]; [4]", "result": "9.33 e-7 mM"}, {"measurement": "CBF during the recovery period", "setting": "[1]; recovery period", "result": "continued to decrease"}, {"measurement": "concentration at which infundibular muscle contraction rate was significantly inhibited", "setting": "hamster infundibula; [4]", "result": "9.33 e-7 mM"}, {"measurement": "reversibility of effect on contraction rate after the recovery period", "setting": "hamster infundibula; recovery period", "result": "partially reversible"}, {"measurement": "lowest effective dose lower than that of the single pyridine ring", "setting": "[2]; CAM area", "result": 10, "unit": "million"}, {"measurement": "LOAEL", "setting": "[2]; [5]", "result": "5.36e-10", "unit": "mg/mL"}, {"measurement": "LOAEL (Molar)", "setting": "[2]; [5]", "result": 5, "unit": "pM"}, {"measurement": "NOAEL (Molar)", "setting": "[2]; [5]", "result": 0.5, "unit": "pM"}, {"measurement": "minimal effective concentration", "setting": "[2]; Gallus gallus, 24 h, read-out: lowest effective dose on CAM area", "result": "5e-06 µM and 5.4e-07 µg/mL"}, {"measurement": "concentration at which oocyte pickup rate was significantly inhibited", "setting": "[3]; [4]", "result": "9.33 e-7 mM"}, {"measurement": "reversibility of effect on OPR after the recovery period", "setting": "[3]; recovery period", "result": "partially reversible"}]}]}
